Data reported in patent US6548307B2, “Determination of logP coefficients via a RP-HPLC column” (Pfizer Inc., priority 2000, dated 2003).
Read-outs that look alike come from different tables or passages of the source.

Tests used:
[1] = Shake-flask data from literature references; cited from earlier work
[2] = physchem; details: for log k′2 (capacity factor extrapolated to 0% methanol): Average of at least three determinations on different LC-ABZ columns, 20 mM MOPS pH 7.4/methanol with octanol; for Residual: logPoct minus ElogPoct
Description: The mobile phase consisted, in all cases, of 20 mM MOPS buffer at pH 7.4, and methanol in varying proportions from 70 to 15% v/v. […] The capacity factors data (k′=(tR−t0)/t0) obtained at various amounts of methanol were then extrapolated to 0% methanol and reported as log k′w, using a linear procedure. […] Injections of pure methanol were used to determine t0, i.e. the dead time, while tR has the usual meaning of the retention time for the analyte.
All the chromatographic runs were performed on a HP-1100 HPLC ChemStation at the ambient temperature. The columns used were Supelcosil LC-ABZ, 5μm, 4.6×50 mm. […] Columns having different silica bond lots were tested to ensure reproducibility. Samples were dissolved in 1:1 methanol/water at a concentration of 10-30 μg/mL. The flow rate was 0.5, 1 or 2 mL/min, depending on the lipophilicity range. Three lipophilicity ranges were established using, in all cases, three points for the extrapolation to k′w, as described in the table below.
The samples were placed in the appropriate range by estimating their lipophilicity via computed values, or by prior experience with a given class. In each case the entire group of samples was run before the column is equilibrated to the next condition, in an automated fashion, and the initial estimation need not be very accurate. The data analysis was automated via in-house software yielding the ElogPoct values, directly from the chromatographic data files.

[3] = Shake-flask octanol/buffer partition coefficient (logPoct); format: physicochemical; details: Shake-flask data, this work (in-house, octanol/MOPS buffer, overnight shaking)
Source text: The shake-flask logPoct data were taken from the literature or determined in-house, except when data were not available or could not be determined experimentally due to the high lipophilicity of the compound. In such cases a computed value was used. The shake-vial experimental measurements performed in-house were all conducted at least in duplicate, in amber glass vials and, in some cases, with varying ratios of octanol and MOPS buffer, mutually pre-saturated prior to the experiment. Overnight shaking was used. HPLC analysis at different wavelengths, after centrifugation and separation of the phases, was used for the quantitative analysis, using both phases.

[4] = Data from Equation 3 (from log k′w)

Row | Structure (SMILES) | logPoct [1] | chromatographic logP [2] | log k′2 (capacity factor extrapolated to 0% methanol) [2] | Residual [2] | ElogPoct ([2]; pH 7.4) | ElogPoct [2, 4] | logPoct [3]
1 | Oc1cc(Cl)cc(Cl)c1 [3,5-Dichlorophenol] | 3.68 | 3.91 | 3.40 | −0.23 | – | – | –
2 | Brc1cnc2ccccc2c1 [3-Bromoquinoline] | 3.03 | 2.95 | 2.54 | 0.08 | – | – | –
3 | Oc1cccc(Cl)c1 [3-Clorophenol] | – | – | 2.49 | −0.40 | – | – | –
4 | CC(=O)Nc1ccc(O)cc1 [Acetaminophen] | – | 0.11 | −0.02 | 0.40 | – | – | –
5 | CC(=O)c1ccccc1 [Acetophenone] | – | 1.59 | 1.31 | −0.01 | – | – | –
6 | Oc1ncnc2[nH]ncc12 [Allopurinol] | −0.55 | – | −0.89 | 0.30 | −0.85 | – | –
7 | c1ccc(-c2ccc(C(c3ccccc3)n3ccnc3)cc2)cc1 (centres unmarked) [Bifonazole] | 4.77 | 4.98 | 4.37 | −0.21 | – | – | –
8 | O=C1CN=C(c2ccccn2)c2cc(Br)ccc2N1 [Bromazepam] | 1.65 | 1.39 | 1.13 | 0.26 | – | – | –
9 | NC(=O)N1c2ccccc2C=Cc2ccccc21 [Carbamazepine] | 2.19 | 2.02 | 1.70 | 0.17 | – | – | –
10 | C[C@@H]1C[C@H]2[C@@H]3CCC4=CC(=O)C=C[C@]4(C)[C@@]3(F)[C@@H](O)C[C@]2(C)[C@@]1(O)C(=O)CO [Dexamethasone] | 1.83 | 2.39 | – | – | – | – | –
11 | CC/C(=C(/CC)c1ccc(O)cc1)c1ccc(O)cc1 [Diethylstilbestrol] | 5.07 | 4.75 | 4.16 | 0.32 | – | – | –
12 | C[C@]12CC[C@@H]3c4ccc(O)cc4CC[C@H]3[C@@H]1CC[C@@H]2O [Estradiol] | – | 3.84 | – | – | – | – | –
13 | COC1=CC(=O)C[C@@H](C)[C@]12Oc1c(Cl)c(OC)cc(OC)c1C2=O [Griseofulvin] | 2.18 | 2.59 | 2.21 | −0.41 | – | – | –
14 | CC(=O)OCC(=O)[C@@]1(O)CC[C@H]2[C@@H]3CCC4=CC(=O)CC[C@]4(C)[C@H]3[C@@H](O)C[C@@]21C [Hydrocortisone-21-acetate] | – | – | 1.93 | −0.08 | – | 2.27 | –
15 | O=C1Nc2ccc(Cl)cc2C(c2ccccc2Cl)=NC1O (centres unmarked) [Lorazepam] | – | 2.75 | 2.36 | −0.24 | – | – | –
16 | CN1C(=O)C(O)N=C(c2ccccc2Cl)c2cc(Cl)ccc21 (centres unmarked) [Lormetazepam] | 2.72 | 2.8 | 2.40 | −0.08 | – | – | –
17 | CSc1ncnc2c1ncn2[C@@H]1O[C@H](CO)[C@@H](O)[C@H]1O [Methylthiolnosine] | – | – | 0.19 | −0.25 | – | 0.34 | 0.09
18 | Cc1ncc([N+](=O)[O-])n1CCO [Metronidazole] | −0.02 | – | −0.32 | 0.20 | −0.22 | – | –
19 | c1ccc2ccccc2c1 [Naphthalene] | – | 3.53 | 3.06 | −0.16 | – | – | –
20 | O=[N+]([O-])c1ccc(/C=N/O)o1 [Nifuroxime] | – | 1.36 | 1.11 | −0.08 | – | – | 1.28
21 | NC(=O)N/N=C/c1ccc([N+](=O)[O-])o1 [Nitrofurazone] | 0.23 | 0.24 | 0.10 | −0.01 | – | – | –
22 | CC(=O)CCCCn1c(=O)c2c(ncn2C)n(C)c1=O [Pentoxifylline] | 0.29 | 0.31 | 0.16 | −0.02 | – | – | –
23 | C[C@]12C=CC(=O)C=C1CC[C@@H]1[C@@H]2[C@@H](O)C[C@@]2(C)[C@H]1CC[C@]2(O)C(=O)CO [Prednisolone] | – | 1.84 | 1.54 | −0.24 | – | – | –
24 | C[C@]12C=CC(=O)C=C1CC[C@@H]1[C@@H]2C(=O)C[C@@]2(C)[C@H]1CC[C@]2(O)C(=O)CO [Prednisone] | – | – | 1.21 | −0.02 | – | – | –
25 | c1ccc2ncccc2c1 [Quinoline] | – | 1.86 | 1.56 | 0.17 | – | – | –
26 | C[C@]12CC[C@H]3[C@@H](CCC4=CC(=O)CC[C@@]43C)[C@@H]1CC[C@@H]2O [Testosterone] | 3.29 | – | 2.74 | 0.12 | – | 3.17 | –
27 | CS(=O)(=O)c1ccc([C@@H](O)[C@@H](CO)NC(=O)C(Cl)Cl)cc1 [Thiamphenicol] | −0.27 | – | −0.24 | −0.14 | −0.13 | – | –
28 | Cc1cccc(N(C)C(=S)Oc2ccc3ccccc3c2)c1 [Tolnaftate] | – | 5.18 | 4.55 | 0.22 | – | – | –
